Measurements published in patent US20130274233A1, “MODULATORS OF HEDGEHOG SIGNALING PATHWAY” (priority 2012, published 2013).
“And” between values parts separate entries of the source, which are not always exact repeats. Equal values may be shown once.

Legend:
Format in all cases: cell-based
[1] = test system: Smo::EGFP/Ivs::tagRFPT cells; assay: Cytotoxicity in vitro in the high content assay; settings: doses up to 200 μM
Experimental: Hoechst staining was used to determine the total number of nuclei per well.
Cells were cultured and treated in 384-well imaging plate precoated with poly-D-Lysine (Greiner Bio-one), fixed with 4% paraformaldehyde (Electron Microscopy Sciences), and stained with Hoechst (Invitrogen). Images were collected using Opera High Content Screening System (Perkin Elmer).

primary cilium (PC) = assay: Primary cilium markers in the high content assay (Ivs::tagRFPT, Arl13b, acetylated tubulin); settings: Ivs::tagRFPT and other PC markers
Description: (§1) Acapella 2.0 software (Evotec Technologies/PerkinElmer) was used to perform multi-parametric high content image quantification. Our image analysis script used Ivs::tagREPT to first determine the location of the PC and then Smo::EGFP to quantify the level of Smo present in the cilium.
The inventors used the spot-finding algorithm in the RFP channel to find Ivs-rich spots. Each non-overlapping spot was based on a maximum 8 pixel-radius (when using a 40× objective) around a central intensity peak of 5 pixels. A distance of at least 10 pixels was required between adjacent spot centers. Spot peaks had to exceed thresholds of relative intensity compared to the remaining body of the spot as well as to the entire image. The average, maximum and total RFP intensity of each spot were measured. The spots with sufficiently high absolute maxima to pass the selected threshold were classified as positive spots. To form candidate cilia, the inventors selected the brightest 15% of the pixels in each positive spot and merged those pixels into objects so that the brightest parts of adjacent spots could form single, larger cilia-shaped objects. To qualify the candidate cilia as true Ivs-positive cilia, the width of the objects created from merging the brightest pixels in each spot had to be at least 2 pixels and the length to half-width ratio had to exceed 3. (i.e. a 3-pixel long by 2-pixel wide cilium was the minimum accepted cilium size and the length had to be at least 1.5 fold of the width). The mean GFP intensity within these Ivs-positive cilia was used to estimate the ciliary level of Smo protein. The inventors subtracted the background of the mean GFP intensity in the 3-pixel wide area around each candidate cilium to avoid some false positives. Those Ivs-positive cilia that exceed the final mean GFP intensity threshold set for each experiment were deemed Smo-positive cilia. […]
Cells were cultured and treated in 384-well imaging plate precoated with poly-D-Lysine (Greiner Bio-one), fixed with 4% paraformaldehyde (Electron Microscopy Sciences), and stained with Hoechst (Invitrogen). […] Acapella 2.0 software (Evotec Technologies/PerkinElmer) was used to perform multi-parametric image quantification. All the comparative images were scanned with identical microscopic setting and analyzed with the same input parameters.

Hh pathway activity = assay: Gli-luciferase reporter assay, Hh pathway activation by compound alone (NIH/3T3 cells)
Experimental: ShhLightII cells and SmoM2/LightII cells were cultured and treated in 96 well assay plates (Corning) and incubated with Duo-Glo luciferase substrates (Promega) to sequentially measure firefly and renilla luciferase activity. Smo, or GFP, expression plasmids were co-transfected into 3T3 cells together with a Gli-responsive firefly reporter and a TK-renilla luciferase reporter contruct to monitor effects of Smo overexpression. Co-transfection of the two reporter constructs was conducted in assays measuring Hh pathway activity in suFU−/− cells. Wnt activity was measured following co-transfection of a Top-flash and renilla luciferase reporter. In both Hh and Wnt activity assays, renilla luciferase reporter activity, or mass of protein, was used to normalize expression values. Luciferase signal was read by TopCount NX Microplate Scintillation and Luminescence Counter (Perkin Elmer). Quantitative PCR probes for Ptch1, Gli1, and β-actin were purchased from Applied Biosystems. Reactions and measurements were performed using on an Applied Biosystems 7900HT at Harvard FAS Center of System Biology. β-actin was used to normalize Ptch1 and Gil1 values.

Smo::EGFP = molecular target: T1, Smo::EGFP (Homo sapiens, UniProt Q99835); assay: SAG-induced Smo::GFP ciliary accumulation (3T3/Smo::GFP/Ivs::tagRFPT); settings: 3T3/Smo::GFP/Ivs::tagRFPT cells; 100 nM SAG; read-out: IC50, inhibition of SAG-induced Smo::GFP ciliary accumulation
T1 construct: expressed in transfected cells
T1 sequence (Q99835 28-787): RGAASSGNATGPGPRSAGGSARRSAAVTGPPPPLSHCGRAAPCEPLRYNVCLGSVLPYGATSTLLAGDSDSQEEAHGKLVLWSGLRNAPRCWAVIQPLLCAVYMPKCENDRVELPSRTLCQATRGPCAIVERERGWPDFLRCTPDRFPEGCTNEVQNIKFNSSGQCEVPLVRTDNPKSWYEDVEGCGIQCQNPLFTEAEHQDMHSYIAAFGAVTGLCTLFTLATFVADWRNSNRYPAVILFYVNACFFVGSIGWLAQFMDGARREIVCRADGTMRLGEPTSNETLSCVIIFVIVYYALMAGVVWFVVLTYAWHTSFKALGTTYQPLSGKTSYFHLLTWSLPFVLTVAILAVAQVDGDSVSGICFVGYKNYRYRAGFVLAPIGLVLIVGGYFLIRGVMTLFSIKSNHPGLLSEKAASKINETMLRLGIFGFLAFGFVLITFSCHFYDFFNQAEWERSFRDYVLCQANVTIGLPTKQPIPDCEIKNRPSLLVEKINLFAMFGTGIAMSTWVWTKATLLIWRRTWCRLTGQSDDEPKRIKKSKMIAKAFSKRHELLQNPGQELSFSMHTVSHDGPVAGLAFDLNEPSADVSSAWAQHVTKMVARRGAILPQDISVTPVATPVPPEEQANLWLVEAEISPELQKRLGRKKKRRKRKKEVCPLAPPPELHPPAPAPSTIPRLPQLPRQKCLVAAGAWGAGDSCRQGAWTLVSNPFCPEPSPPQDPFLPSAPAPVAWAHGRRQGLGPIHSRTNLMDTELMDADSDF
Experimental: (§2) Cells were cultured and treated in 384-well imaging plate precoated with poly-D-Lysine (Greiner Bio-one), fixed with 4% paraformaldehyde (Electron Microscopy Sciences), and stained with Hoechst (Invitrogen). Images were collected using Opera High Content Screening System (Perkin Elmer). Activityl)ase (IDBS Inc, Emeryvill, Calif.) and Pipeline Pilot (Accelrys, Inc. San Diego, Calif.) were used for high content screening data management and analysis. Acapella 2.0 software (Evotec Technologies/PerkinElmer) was used to perform multi-parametrical high content image quantification. All the images for comparison were scanned with identical microscopic settings and analyzed with the same input parameters.
as §1
The inventors used the spot-finding algorithm in the RFP channel to find Ivs-rich spots. Each non-overlapping spot was based on a maximum 8 pixel-radius (when using a 40× objective) around a central intensity peak of 5 pixels. A distance of at least 10 pixels was required between adjacent spot centers. […] The average, maximum and total RFP intensity of each spot were measured. […]

SmoM2::GFP = molecular target: T2, SmoM2::GFP (Homo sapiens, UniProt Q99835, W535L); assay: Ciliary localization of SmoM2::GFP (3T3/SmoM2::GFP Overexpression/Ivs::tagRFPT)
T2 construct: expressed in transfected cells
T2 sequence (Q99835 28-787 W535L): as the sequence (Q99835 28-787) above, with W508L counted along it
Description: NIH/3T3 cells were maintained in DMEM containing 10% (v/v) calf serum, penicillin, streptomycin, and L-glutamine. HEK293, L, cos 7, and suFU−/− mouse embryonic fibroblast cells were maintained in DMEM containing 10% (v/v) fetal bovine serum, penicillin, streptomycin, and L-glutamine. Smo::EGFP, SmoM2::GFP, and Ivs::tagRFPT were cloned into pBabe to generate retroviral particles for infection. Smo::EGFP/Ivs::tagRFPT and SmoM2::GFP/Ivs::tagRFPT stable cell lines were generated through viral infection of NIH/3T3^12. A ShhLightII Gli reporter cell line was obtained from the American Type Culture Collection (ATCC) and used in luciferase reporter assays to measure Hh pathway activity. The cell line contains a stably integrated Gli-responsive Firefly luciferase reporter and a constitutive Renilla luciferase expression construct^33. Subclones expressing Smo or SmoM2 in ShhLightII cells were used for chemical epistasis analyses.
as §2, §1

| SMILES | cytotoxic effects in vitro [1] | effect on primary cilium markers / ciliary structure (primary cilium (PC)) | Hh pathway activation in transcription reporter assay (Hh pathway activity; FA 10 μM) | transcriptional response in Gli-luciferase reporter assay (Hh pathway activity; FA >50 μM) | EC50 (Hh pathway activity; Mus musculus, NIH3T3, Gli-luciferase reporter, compound alone, read-out: EC50 for weak transcriptional activation) | IC50 (Smo::EGFP) | IC50 (SmoM2::GFP; 3T3/SmoM2::GFP Overexpression/Ivs::tagRFPT, stimulus none, read-out: IC50, inhibition of ciliary localization of SmoM2::GFP) | effect on SmoM2 ciliary localization (SmoM2::GFP; SmoM2::EGFP overexpressing cells) |
| --- | --- | --- | --- | --- | --- | --- | --- | --- |
| CC1(C)O[C@@H]2C[C@H]3[C@@H]4C[C@H](F)C5=CC(=O)C=C[C@]5(C)[C@@]4(F)[C@@H](O)C[C@]3(C)[C@]2(C(=O)CO)O1 [FA, fluocinolone acetonide] | no obvious cytotoxic effects | unaltered | no pathway activation was observed | 4 fold | > 50 µM |  |  |  |
| CCN(CC)c1ccc(/C=N/NC(=O)c2ccc(O)cc2)cc1 [DY131] |  |  |  |  |  | ~2 µM and 2 µM | > 30 µM | failed to inhibit |
